Read-outs that look alike come from different tables or passages of the source.
Assays:
Caco-2 permeability = format: in vitro ADME; conditions: human
Source text: We next evaluated analogs 2b, 2f, 4a, and 4e in a panel of standard in vitro ADME assays to assess drug-like properties and the potential for efficacy in animals.

[1] = system: clinical isolates of HIV-1; experiment: HIV-1 replication assay in PBMCs, p24 ELISA; format: cell-based
Procedure: HIV-1 replication assay in PBMCs. Virus isolates were obtained from the NIH AIDS Reagent Program. Human PBMCs, seronegative for HIV and hepatitis B virus (Astarte Biologics, LLC) were stimulated in R-3 medium (RPMI 1640 medium with 25 mM HEPES and L-glutamine, 20% heat-inactivated fetal bovine serum, 1% penicillin/streptomycin, 201U/mL IL-2) with 5 µg/mL phytohemagglutinin (PHA-P) for 48 to 72 h. Stimulated PBMCs were resuspended and diluted in fresh R-3 medium and added to 96-well plates at 5×10^4 cells/well. The 50% tissue culture infective dose (TCID50) of each virus stock was measured by end-point dilution assay described by Reed and Muench (Reed, L. J., and Muench, H. (1938) American Journal of Hygiene 27, 493-497). Spinoculation (1,200×g, 2 hrs) was applied to improve the efficiency of infection.
Cells were infected with 40 TCID50s of virus stock under spinoculation in the presence of different concentrations of test compounds (biological quintuplicate wells/concentration) and incubated at 37° C., 5% CO2 for 7 days. On day 4, half of the supernatant was removed and replaced with fresh R-3 medium containing the appropriate concentration of test compounds. On day 7, cell-free supernantant samples were collected for analysis of p24 antigen expression measured by ELISA described above. Antiviral activity was assessed by the inhibition of p24 expression (Reed, L. J., and Muench, H. (1938) American Journal of Hygiene 27, 493-497.

[2] = system: HIV-1 isolate NL4-3 deleted for Vpu; experiment: Replication assay in Jurkat cells with Vpu-deleted virus; format: cell-based; conditions: Human immunodeficiency virus 1, NL43, Jurkat, read-out: IC50 value for isolate NL4-3 deleted for Vpu
Procedure: FIG. 10. In embodiments, HIV viruses that are defective or deleted for Vpu are resistant to the compounds described herein. Replication assays with HIV-1 isolate NL4-3 or NL4-3 deleted for Vpu in Jurkat cells. Replication spreading assays were performed with compound at doses ranging from 1 nM to 316 nM in triplicate. Supernatants were collected every 48-72 hours and p24 values were determined by ELISA. FIG. 10 corresponds to analog 4e with HIV-1 isolate NL4-3 in Jurkat cells and with HIV-1 isolate NL4-3 deleted for Vpu in Jurkat cells.
Virus spreading assay. Jurkat (E6-1) cells (NIH AIDS Reagent Program) were cultured in RPMI media supplemented with 25 mM HEPES pH 7.4, 10% heat-inactivated fetal calf serum (Hyclone, Waltham Mass.), and 1% penicillin/streptomycin. 2.5×10^5 Jurkat cells were inoculated with 250 pg p24 in 250 μl media in a 96-well flat bottom polystyrene cell culture microplate. Input virus was removed after 18 hours via washing cells phosphate-buffered saline (PBS). Cells were resuspended in 250 μl of media containing compounds at the described concentrations. […] Viral replication was quantified using ELISA to quantify p24 viral capsid protein in the culture supernatant. […] Toxicity was monitored using the MTT cell viability assay (Mosmann, T. (1983). J Immunol Methods 65, 55-63). […]

[3] = system: HIV-1 provirus in U1 cells; experiment: U1 activation (latency) assay, p24 ELISA; format: cell-based; conditions: for IC50: Human immunodeficiency virus 1
Method in brief: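 PHA-activated U1 cells (latent integrated HIV-1 provirus, 250,000/well) treated with compound at final 1 to 10,000 nM for 3 days; virus production measured by p24 ELISA of cell-free supernatant. Cell viability assessed by MTT in parallel cultures.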

[4] = Human liver microsome stability; format: in vitro ADME; conditions: human liver microsomes; read-out: HLM T1/2
Source text: The more lipophilic analogs 4a and 4e also appear more prone to oxidative metabolism in the presence of human liver microsomes. This is perhaps unsurprising given the presence of methoxyphenyl (4a) and benzylic methylene (4e) functions, both potential sites of oxidative metabolism.

HIV-1 isolate NL4-3 = experiment: Virus spreading / replication assay in Jurkat cells, p24 ELISA; format: cell-based
Procedure: Virus spreading assay. Jurkat (E6-1) cells (NIH AIDS Reagent Program) were cultured in RPMI media supplemented with 25 mM HEPES pH 7.4, 10% heat-inactivated fetal calf serum (Hyclone, Waltham Mass.), and 1% penicillin/streptomycin. 2.5×10^5 Jurkat cells were inoculated with 250 pg p24 in 250 μl media in a 96-well flat bottom polystyrene cell culture microplate. Input virus was removed after 18 hours via washing cells phosphate-buffered saline (PBS). Cells were resuspended in 250 μl of media containing compounds at the described concentrations. Cells were incubated at 37° C., 5% CO2 and supernatant samples were removed every 48 hours and replaced with fresh media containing the compounds. Viral replication was quantified using ELISA to quantify p24 viral capsid protein in the culture supernatant. Mouse monoclonal and rabbit polyclonal α-p24 antibodies used in the ELISA were obtained from the NIH AIDS Reagent Program. Toxicity was monitored using the MTT cell viability assay (Mosmann, T. (1983). J Immunol Methods 65, 55-63).

Molecule `NC(=O)c1cc2c(-c3ccc4c(c3)CCO4)cncc2s1` [Compound 4e, 4-(2,3-dihydro-1-benzofuran-5-yl)thieno[2,3-c]pyridine-2-carboxamide] has a Papp (Caco-2 permeability) of 66.6 ×10⁻⁶ cm/s, an IC50 ([1]; Human immunodeficiency virus 1, BAL, CCR5, PBMC, viral isolate Ba-L, coreceptor CCR5) of under 0.1 µM and an IC50 ([1]; Human immunodeficiency virus 1, CCR5, PBMC, viral isolate 92HT593, coreceptor CXCR4, CCR5) of under 0.1 µM. It also gave an IC50 ([1]; Human immunodeficiency virus 1, CCR5, PBMC, viral isolate 92TH014, coreceptor CCR5) of under 0.1 µM, an IC50 ([1]; Human immunodeficiency virus 1, CCR5, PBMC, viral isolate 93BR021, coreceptor CCR5) of under 0.1 µM and an IC50 ([1]; Human immunodeficiency virus 1, CCR5, PBMC, viral isolate 93BR028, coreceptor CCR5) of under 0.1 µM. For the same molecule, the IC50 ([1]; Human immunodeficiency virus 1, PBMC, PBMC, viral isolate 92HT599, coreceptor CXCR4) was under 0.1 µM, the IC50 ([1]; Human immunodeficiency virus 1, PBMC, PBMC, viral isolate 92UG005, coreceptor CXCR4) was under 0.1 µM and the IC50 ([1]; Human immunodeficiency virus 1, PBMC, PBMC, viral isolate LAI, coreceptor CXCR4) was 0.1 to 0.5 µM. The IC50 [2] was 0.15 µM, the “potency in the U1 assay” value [3] was “low-nM potency” and the IC50 ([3]; Table 2, read-out: U1 cell IC50) was under 0.1 µM. The IC50 ([3]; read-out: IC50 in the U1 assay) was 0.009 µM, the half-life [4] was 18 min and the IC50 (HIV-1 isolate NL4-3; Human immunodeficiency virus 1, NL43, Jurkat, FIG. 17, first pair of values, read-out: IC50 NL4-3 control) was 0.0062 µM. The IC50 (HIV-1 isolate NL4-3; Human immunodeficiency virus 1, NL43, Jurkat, FIG. 17, second pair of values ('Notably'), read-out: IC50 control) was 0.0259 µM, the IC50 (HIV-1 isolate NL4-3; Human immunodeficiency virus 1, NL43, Jurkat, Table 2, NL4-3, read-out: Jurkat HIV-1 replication assay) was under 0.1 µM and the IC50 (HIV-1 isolate NL4-3; Human immunodeficiency virus 1, NL43, Jurkat, read-out: IC50 in the HIV replication assay) was 0.004 µM. The IC50 (HIV-1 isolate NL4-3; Human immunodeficiency virus 1, NL43, Jurkat cells, wild type virus, Vpu experiment (FIG. 10), read-out: IC50 value for isolate NL4-3) was 0.005 µM.

Source: US10154992B2, “Compounds and methods for treating HIV infection” (THE REGENTS OF THE UNIVERSITY OF CALIFORNIA, priority 2016, dated 2018)
